# In US12251411B2, “Methods of treating endometrial cancer using hemp extract” (Ecofibre USA Inc., priority 2021, dated 2025):
# Like-named read-outs stand apart in the source and are kept apart here.
# Assays:
# [1] = test system: endometrial cancer patient derived organoids; test: Viability of patient-derived endometrial cancer organoids treated with cannabis extracts (CellTiter-Glo); conditions: for IC50: Homo sapiens; for viable organoids in words: 7 and 10 μg/mL
# Protocol: For this set of experiments, we obtained tissue samples from a new set of 12 patients, each having grade 1, grade 2, or grade 3 endometrial cancer. Cells from these patients were prepared as described in the Methods section below.
# (§1) Individual patient cell organoids were cultured separately in different plates.
# (§2) The same IC50 dose was given with each incremental dose of chemotherapeutic agent.
# [2] = test system: patient derived endometrial cancer tumors; test: Patient-derived xenograft mice: change in endometrial cancer tumor volume with cannabis extracts alone; assay type: in vivo; conditions: for decrease in average tumor volume vs day 0: day 10
# Protocol: Generally, EC stem cells from the same patients that participated in the organoid studies of FIG. 7, were injected into the mice, and allowed to grow. After tumors reached a certain size, the mice were either injected (3 times/week) with the extract-delivery vehicle or with the particular cannabis extract. After a certain amount of time elapsed, tumor size was measured. The details regarding patient-derived xenograft methodology and experimental protocol are provided in the Methods section.
# The % change is an average number taken from tumor volumes of three mice compared to the starting average tumor volume on day 0 of treatment. Change can either be positive (tumor increases in size) or negative (tumor decreases in size).
# (§3) Human patient cells from endometrial cancer were injected subcutaneously into female NOD/SCID gamma mice after resuspending in 100 μL solution. […] Tumor size was measured before treatment, followed by twice a week measurements. All treatment group mice were kept alive for up to 10 weeks after drug injection or until the tumor volume grows bigger than 2500 mm^3.
# [3] = test system: patient derived endometrial cancer organoids; test: Patient-derived endometrial cancer organoid viability: chemotherapeutic agent alone or with IC50 dose of cannabis extract
# Protocol: To perform these experiments, we used cells from patient 4 (see, e.g., FIGS. 7A and 7C) to test grade 2 endometrial cancer and cells from patient 12 (see, e.g., FIGS. 7B-7D) to test grade 3 endometrial cancer. […] Methods concerning producing organoids from human tissue samples are provided in the Methods section at the end of this document.
# as §1, §2
# [4] = test system: organoids derived from ovarian cancer tissue; test: Impact of pH on viability of ovarian cancer organoids treated with cannabis extracts; assay type: cell-based; conditions: 10 μg/mL; pH 8
# From the text: In this set of experiments, organoids were derived from ovarian cancer tissue.
# P-glycoprotein = P-glycoprotein (Homo sapiens, UniProt P08183); conditions: in vitro; cited from earlier work
# CYP2C19 = CYP2C19 (Homo sapiens, UniProt P33261); conditions: in vitro; cited from earlier work
# [5] = cited from earlier work
# [6] = cited from earlier work; remark: listed apart in the source
# [7] = test system: patient derived endometrial cancer tumors; test: Patient-derived xenograft mice: tumor volume with paclitaxel alone or combined with cannabis extract; assay type: in vivo
# Protocol: as §3
# [8] = test system: patient derived organoids; assay type: cell-based, human; conditions: % of cells that died compared to control; organoids of the chemoresistant patient
# Protocol: In addition to the agents listed above, several other drugs were tested to see if they influenced organoid growth. In this case, results are shown as the % of cells that died compared to control. […] This is consistent with the patient's actual lack of response to treatment with paclitaxel.
# [9] = test system: organoids from the patient's endometrial cancer; test: Response of organoids crafted from the patient's endometrial cancer to alternative chemotherapies and BSHE; assay type: cell-based, human; conditions: chemoresistant stage IV endometrial cancer patient
# From the text: See, Tables 3 and 4, below.
# [10] = read-out: IC50s for Patient 4 Organoids (Grade 2 Endometrial Cancer)
# [11] = read-out: IC50s for Patient 12 Organoids (Grade 3 Endometrial Cancer)
# [12] = day 14, 6 doses total of about 30 mg/kg
# CYP2C19, sequence (P33261 whole entry, species assumed): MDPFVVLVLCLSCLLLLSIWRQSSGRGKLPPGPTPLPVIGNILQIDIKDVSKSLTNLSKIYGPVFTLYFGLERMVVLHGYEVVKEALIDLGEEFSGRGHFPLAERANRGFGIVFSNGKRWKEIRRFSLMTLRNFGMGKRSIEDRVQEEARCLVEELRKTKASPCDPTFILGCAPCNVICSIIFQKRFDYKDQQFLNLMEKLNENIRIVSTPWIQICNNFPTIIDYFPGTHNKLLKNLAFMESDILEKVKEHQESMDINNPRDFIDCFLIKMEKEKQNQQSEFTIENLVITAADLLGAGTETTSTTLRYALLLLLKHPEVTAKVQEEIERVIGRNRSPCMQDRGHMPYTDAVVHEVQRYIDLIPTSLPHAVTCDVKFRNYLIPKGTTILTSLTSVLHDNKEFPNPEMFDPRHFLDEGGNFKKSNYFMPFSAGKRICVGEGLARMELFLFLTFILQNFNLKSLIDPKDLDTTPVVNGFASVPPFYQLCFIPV
# P-glycoprotein, sequence (P08183 whole entry): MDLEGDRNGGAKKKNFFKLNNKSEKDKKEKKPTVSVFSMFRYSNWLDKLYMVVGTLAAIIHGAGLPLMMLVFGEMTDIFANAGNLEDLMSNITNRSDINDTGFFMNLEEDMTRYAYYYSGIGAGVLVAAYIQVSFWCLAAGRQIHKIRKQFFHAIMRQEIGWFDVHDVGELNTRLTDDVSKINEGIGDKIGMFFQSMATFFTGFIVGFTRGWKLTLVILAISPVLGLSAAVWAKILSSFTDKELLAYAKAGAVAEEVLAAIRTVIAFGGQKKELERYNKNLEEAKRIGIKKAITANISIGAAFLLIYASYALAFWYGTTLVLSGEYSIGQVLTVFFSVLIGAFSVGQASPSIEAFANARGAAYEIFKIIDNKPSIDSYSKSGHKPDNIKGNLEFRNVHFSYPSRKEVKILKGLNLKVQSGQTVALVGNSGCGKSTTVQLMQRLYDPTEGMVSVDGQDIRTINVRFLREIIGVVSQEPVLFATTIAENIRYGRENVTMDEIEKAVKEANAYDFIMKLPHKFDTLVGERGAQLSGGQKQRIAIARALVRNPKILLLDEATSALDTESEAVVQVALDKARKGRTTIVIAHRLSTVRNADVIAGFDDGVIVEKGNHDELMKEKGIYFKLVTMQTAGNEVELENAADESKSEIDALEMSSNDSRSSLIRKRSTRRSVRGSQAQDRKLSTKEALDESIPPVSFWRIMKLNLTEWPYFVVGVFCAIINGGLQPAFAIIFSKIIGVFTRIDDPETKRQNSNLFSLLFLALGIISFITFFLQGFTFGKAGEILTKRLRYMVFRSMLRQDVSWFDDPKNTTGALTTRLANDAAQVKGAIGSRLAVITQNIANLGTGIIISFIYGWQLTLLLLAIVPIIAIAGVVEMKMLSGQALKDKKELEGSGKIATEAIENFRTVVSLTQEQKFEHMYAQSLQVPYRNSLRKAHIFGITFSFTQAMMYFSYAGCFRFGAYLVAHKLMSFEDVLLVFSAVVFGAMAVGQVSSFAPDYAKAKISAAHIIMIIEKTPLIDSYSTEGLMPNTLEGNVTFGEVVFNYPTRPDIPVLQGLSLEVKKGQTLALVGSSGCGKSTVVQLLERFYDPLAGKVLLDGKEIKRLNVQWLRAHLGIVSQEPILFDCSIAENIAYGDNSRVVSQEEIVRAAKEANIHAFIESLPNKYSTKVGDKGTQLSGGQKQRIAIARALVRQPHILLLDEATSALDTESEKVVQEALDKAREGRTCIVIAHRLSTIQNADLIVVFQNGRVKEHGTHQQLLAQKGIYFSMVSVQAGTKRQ
molecule,measurement,setting,value
"C=C(C)[C@@H]1CCC(C)=C[C@H]1c1c(O)cc(CCCCC)cc1O [CBD isolate, cannabidiol]",IC50,[1]; [10],3.09 µg/mL
same,IC50,[1]; [11],2.92 µg/mL
same,IC50,[1]; read-out: dose at which 50% viability of organoids was obtained,~3 µg/mL
same,viable organoids / response in words,"[1]; grade 1, 10 μg/mL",does not show complete response
same,response of organoids,"[1]; grade 1 lower responder patient, 15 and 20 μg/mL",complete response
same,viable organoids in words,[1]; grade 2,virtually zero
same,viable organoids in words,[1]; grade 3,virtually zero
same,dose at which 50% viability of organoids was obtained,[1]; grade 3 representative sample (FIG. 7),about 3 μg/mL
same,decrease in average tumor volume vs day 0,"[2]; about 30 mg/kg, 3 times/week",not as responsive
same,decrease in average tumor volume compared to starting size,[2]; [12],less than 50%
same,decrease in viable organoids compared to carboplatin alone,"[3]; patient 4, IC50 dose of extract + 100 μM/mL carboplatin",about 32%
same,decrease in the % of viable organoids when 4 nM/mL paclitaxel is combined with extract,"[3]; patient 12, grade 3, IC50 dose of extract + 4 nM/mL paclitaxel",up to 19%
same,efficacy compared to native pH,[4],virtually no change
same,P-glycoprotein-mediated drug transport,P-glycoprotein,significantly inhibits
same,inhibition of CYP2C19 enzymes,CYP2C19,potent inhibitor
same,dose with clinically significant drug interactions,[5]; current literature,20 mg/kg/day
same,doses established as well tolerated,"[5]; humans, chronic use","up to 1,500 mg/day"
same,dose with meaningful interactions with Warfarin,[5]; published case study,10 mg/kg
same,effect on peak plasma drug concentrations,[6]; coadministration of ketoconazole (CYP3A4 inhibitor),nearly doubled
same,effect on peak plasma concentrations,[6]; coadministration of rifampicin (CYP3A4 inducer),significantly reduced
same,increase of Cmax,[6]; coadministration with high fat food,up to 5 fold
same,Tmax,[6]; delivery via nasal mucosa,approximately 10 minutes
same,maximum plasma concentration (time),[6]; oral,2.5 to 5 h
same,"maximum plasma concentration (time), delayed in some individuals",[6]; oral,up to 6 hours
same,serum bioavailability,"[6]; orally delivered, consumed with CBDA",increase substantially
same,maximum plasma concentration (time),[6]; oromucosal or sublingual delivery,1.6 h
same,bioavailability,[6]; rectal suppository delivery,51-60%
"C=C(C)[C@@H]1CCC(C)=C[C@H]1c1c(O)cc(CCCCC)c(C(=O)O)c1O [CBDA, cannabidiolic acid]",response of organoids,[1]; 10 and 15 μg/mL,a strong response was not seen in all patient derived organoids
same,IC50,[1]; [10],12.1 µg/mL
same,IC50,[1]; [11],15.8 µg/mL
same,formation of viable organoids,"[1]; all patients, dosing up to 50 μg/mL",~0%
same,effect on organoid viability,[1]; lower doses,did not affect organoid viability
same,increase in average tumor volume vs day 0,"[2]; day 7, 3 doses of about 30 mg/kg, injected 3 times/week",greater than 30%
same,overall decrease in average tumor volume in three days,"[2]; day 7 to day 10, about 30 mg/kg, 3 times/week",greater than 60%
same,decrease in average tumor volume vs day 0,"[2]; about 30 mg/kg, 3 times/week",greater than 30%
same,decrease in average tumor volume compared to starting size,[2]; [12],70%
same,decrease in average tumor volume compared to starting size,"[2]; day 21, 9 doses total of about 30 mg/kg",~100%
same,increase in average tumor volume,"[7]; a few days before day 14, extract 30 mg/kg + paclitaxel 10 mg/kg",~40%
same,decrease in average tumor volume compared to paclitaxel alone,"[7]; day 14, extract 30 mg/kg + paclitaxel 10 mg/kg",~20%
same,bioavailability,[6]; consumed with other cannabinoids in FSHE vs equivalent dose of isolated CBDA,increased bioavailability
CC(=O)O[C@H]1C(=O)[C@@]2(C)[C@H]([C@H](OC(=O)c3ccccc3)[C@]3(O)C[C@H](OC(=O)[C@H](O)[C@@H](NC(=O)c4ccccc4)c4ccccc4)C(C)=C1C3(C)C)[C@]1(OC(C)=O)CO[C@@H]1C[C@@H]2O [Paclitaxel],% Cell Death,[8],39%
same,organoid viability,"[3]; human, 9 days, 4 nM/mL",about 30%
same,improvement of 20 nM/mL over the lower dose (4 nM/mL),"[3]; patient 4, grade 2, paclitaxel alone",about 12%
same,improvement in reducing % viable organoids between 4 nM/mL and 20 nM/mL,"[3]; patient 12, grade 3, paclitaxel alone",~5%
same,decrease in tumor volume,"[7]; paclitaxel alone 10 mg/kg, day 10",~37%
same,further change of tumor volume,"[7]; paclitaxel alone 10 mg/kg, day 10 to day 21",does not really change
gemcitabine/capecitabine [GemCap],response of the patient's organoids,[9],partial response
